Data published in patent US20100210561A1, “USE OF PEPTIDE AS A THERAPEUTIC AGENT” (priority 2007, published 2010).
Where no end group is shown, it is not given here. [ ]: non-standard residue; d: D form. The star is where a group is joined. tBu = CC(C)(C)*

How the values were obtained:
Interleukin-2 (IL-2) = experiment: Th1/Th2 cytokine profiling assay: IL-2; type: cell-based, Balb/c mice; conditions: Ovalbumin-restimulated spleen cells, 72 hours
HCMV strain AD169 = experiment: HCMV plaque formation assay in MRC-5 cells; type: cell-based, human cytomegalovirus; conditions: 10 micrograms per ml, 7-10 days
Interferon-γ (IFN-γ) = experiment: Th1/Th2 cytokine profiling assay: IFN-γ; type: cell-based, Balb/c mice; conditions: Ovalbumin-restimulated spleen cells, 72 hours
[1] = system: Tumor Necrosis Factor-α (TNF-α); experiment: Th1/Th2 cytokine profiling assay: TNF-α; type: cell-based, Balb/c mice; conditions: Ovalbumin-restimulated spleen cells, 72 hours
HUVEC = experiment: Endothelial tube formation assay; type: cell-based, human; conditions: 10 micrograms per ml, 20 hours
Method: The endothelial tube formation assay is based on the ability of endothelial cells to form three-dimensional capillary-like tubular structures when cultured on a gel of basement membrane extract. […] Positive control was vehicle only. The endothelial cells were allowed to form tubes foe 20 hours and were then examined under an inverted fluorescent microscope. Duplicate wells for each treatment were photographed and quantitatevily analyzed for an average tubule length using image analysis software ImageProPlus. Raw data were expressed as average tubule lengths in pixels±standard deviation. Statistic p values were computed using the Student's t-test.

[2] = system: hepatitis B virus (HBV) ayw strain; experiment: HBV assay in HepG2-2.2.15 cells (secreted HBV DNA, TaqMan PCR); type: cell-based; conditions: 10 micrograms per ml, six days, HBV DNA in supernatant
Interleukin-4 (IL-4) = experiment: Th1/Th2 cytokine profiling assay: IL-4; type: cell-based, Balb/c mice; conditions: Ovalbumin-restimulated spleen cells, 72 hours
HIV-1IIIB = experiment: HIV-1 antiviral assay in CEM-SS cells (MTS readout); conditions: positive controls

Row | Compound | IL-2 spleen cells (% of control) (Interleukin-2 (IL-2)) | induction of the production of IL-2 in murine spleen cells (Interleukin-2 (IL-2)) | inhibition of HCMV plaque formation as compared to the virus control experiment (HCMV strain AD169) [%] | IFNγ spleen cells; TH1 response (% of control) (Interferon-γ (IFN-γ)) | induction of the production of IFN-γ in murine spleen cells (Interferon-γ (IFN-γ)) | TNF-a spleen cells; TH1 response (% of control) [1] | induction of the production of TNF-alpha in murine spleen cells [1] [%] | inhibition of the tube formation of human endothelial cells (HUVEC) [%] | inhibition of HBV replication as compared to the virus control infection [2] [%] | IL-4 spleen cells; TH2 response (% of control) (Interleukin-4 (IL-4)) | decrease of the production of IL-4 in murine spleen cells (Interleukin-4 (IL-4)) [%] | antiviral activity of positive control compounds (HIV-1IIIB)
1 | Y[dC](tBu)GFLT(tBu)-OH [Peptide 1] | 115.0 % of control | did not significantly change | 46.5 | 107.6 % of control | did not significantly change | 123.7 % of control | 23.7 | 4 | 24.2 | 65.0 % of control | 35.0 | 
2 | Cc1cn([C@H]2C[C@H](N=[N+]=[N-])[C@@H](CO)O2)c(=O)[nH]c1=O [AZT] |  |  |  |  |  |  |  |  |  |  |  | expected levels of antiviral activity
3 | CC(C)(C)NC(=O)[C@@H]1CN(Cc2cccnc2)CCN1C[C@@H](O)C[C@@H](Cc1ccccc1)C(=O)N[C@H]1c2ccccc2C[C@H]1O [indinavir] |  |  |  |  |  |  |  |  |  |  |  | expected levels of antiviral activity
